Molecular target: CB1 (mutant) (Homo sapiens, UniProt P21554)
Assay: R-SAT functional receptor assay, CB1 (mutant, truncated after amino acid 417)
Format: cell-based
Conditions: Appendix A, R-SAT CB1; for IC50 / pIC50: receptor form (mutant or wild-type) not stated; for IC50: read-out: pIC50 (converted); for Emax: receptor form not stated, relative to SR141716 (100%), read-out: % Inhibition

Sequence of CB1 (mutant) (P21554 1-417, change not shown): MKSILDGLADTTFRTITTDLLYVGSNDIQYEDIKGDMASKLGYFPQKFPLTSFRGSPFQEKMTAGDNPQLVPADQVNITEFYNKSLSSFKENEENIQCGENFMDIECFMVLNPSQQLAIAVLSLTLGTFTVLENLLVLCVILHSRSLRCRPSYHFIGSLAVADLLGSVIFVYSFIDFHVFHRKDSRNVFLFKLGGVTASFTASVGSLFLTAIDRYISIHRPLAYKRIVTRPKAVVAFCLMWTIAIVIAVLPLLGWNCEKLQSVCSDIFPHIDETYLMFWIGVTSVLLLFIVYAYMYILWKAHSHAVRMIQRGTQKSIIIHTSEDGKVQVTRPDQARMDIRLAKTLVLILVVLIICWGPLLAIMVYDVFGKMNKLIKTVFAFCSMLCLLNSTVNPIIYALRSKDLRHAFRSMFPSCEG

Row | Structure (SMILES) | IC50 | Emax | pIC50
1 | CCCCNC(=O)c1ccc2c(c1)N=C(C#C[Si](C)(C)C)c1ccccc1S2 | 631 nM | 64% | –
2 | O=C(NN1CCOCC1)c1ccc2c(c1)N=C(N1CCCCC1)c1ccccc1S2 | 794 nM | 99% | –
3 | CCOCCNC(=O)c1ccc2c(c1)N=C(N1CCCCC1)c1ccccc1S2 | 794 nM | 103% | –
4 | CC(C)NC(=O)c1ccc2c(c1)N=C(c1ccccn1)c1ccccc1S2 | 794 nM | 60% | –
5 | O=C(NC1CCCC1)c1ccc2c(c1)N=C(c1ccccc1Cl)c1ccccc1S2 | 794 nM | 59% | –
6 | COCCNC(=O)c1ccc2c(c1)N=C(c1ccccc1Cl)c1ccccc1S2 | 794 nM | 62% | –
7 | CON(C)C(=O)c1ccc2c(c1)N=C(c1sccc1C)c1ccccc1S2 | 794 nM | 42% | –
8 | CONC(=O)c1ccc2c(c1)N=C(c1ccc(Br)cc1)c1ccccc1S2 | 794 nM | 68% | –
9 | O=C(NCc1ccncc1)c1ccc2c(c1)N=C(c1ccccc1Cl)c1ccccc1S2 | 794 nM | 67% | –
10 | O=C(NCc1ccncc1)c1ccc2c(c1)N=C(NCc1ccc(Cl)cc1)c1ccccc1S2 | 794 nM | 56% | –
11 | O=C(NCc1ccc(Cl)cc1Cl)c1ccc2c(c1)N=C(C1CCCCC1)c1ccccc1S2 | 31.6 nM | 90% | –
12 | CCCCN(C)C(=O)c1ccc2c(c1)N=C(c1ccccn1)c1ccccc1S2 | 1000 nM | 57% | –
13 | Cc1cccnc1C1=Nc2cc(C(=O)NC3CCCC3)ccc2Sc2ccccc21 | 1000 nM | 57% | –
14 | CONC(=O)c1ccc2c(c1)N=C(c1cccc(F)c1)c1ccccc1S2 | 1000 nM | 67% | –
15 | CCCCN(C)C(=O)c1ccc2c(c1)N=C(c1ccc(F)cc1)c1ccccc1S2 | 31.6 nM | 107% | –
16 | O=C(NCc1ccco1)c1ccc2c(c1)N=C(c1ccccn1)c1ccccc1S2 | 31.6 nM | 102% | –
17 | CCCNC1=Nc2cc(C(=O)NN3CCCCC3)ccc2Sc2ccccc21 | 1580 nM | 89% | –
18 | CON(C)C(=O)c1ccc2c(c1)N=C(c1ccc(Cl)cc1F)c1ccccc1S2 | 1580 nM | 46% | –
19 | CCCC1=Nc2cc(C(=O)NCc3ccc4c(c3)OCO4)ccc2Sc2ccc(C)cc21 | 1580 nM | 77% | –
20 | NS(=O)(=O)c1ccc(CNC(=O)c2ccc3c(c2)N=C(NCc2ccc(Cl)cc2)c2ccccc2S3)cc1 | 1580 nM | 41% | –

Row | Structure (SMILES) | IC50 | Emax | pIC50
21 | O=C(NN1CCCCC1)c1ccc2c(c1)N=C(Nc1ccccc1)c1ccccc1S2 | 2000 nM | 92% | –
22 | CCCC1=Nc2cc(C(=O)N3CCN(C(=O)c4ccco4)CC3)ccc2Sc2ccccc21 | 2510 nM | 88% | –
23 | CCCC1=Nc2cc(C(=O)NCCCN(CC)CC)ccc2Sc2ccccc21 | 2510 nM | 125% | –
24 | CCCC1=Nc2cc(C(=O)N3CCC(N4CCCCC4)CC3)ccc2Sc2ccccc21 | 2510 nM | 128% | –
25 | CCONC(=O)c1ccc2c(c1)N=C(c1ccc(Cl)cc1Cl)c1ccccc1S2 | 3160 nM | 37% | –
26 | CCOC(=O)c1ccc(C2=Nc3cc(C(=O)NNC(=O)Cc4ccccc4)ccc3Sc3ccccc32)cc1 | 3160 nM | 61% | –
27 | CONC(=O)c1ccc2c(c1)N=C(c1ccc(C#N)cc1)c1ccccc1S2 | – | 36% | 1.0
28 | CCONC(=O)c1ccc2c(c1)N=C(c1ccccn1)c1ccccc1S2 | – | 3% | 1.0
29 | CON(C)C(=O)c1ccc2c(c1)N=C(c1ccccc1Cl)c1ccccc1S2 | – | 10% | 1.0
30 | CCONC(=O)c1ccc2c(c1)N=C(c1ccccc1Cl)c1ccccc1S2 | – | 19% | 1.0
31 | CON(C)C(=O)c1ccc2c(c1)N=C(c1ccccn1)c1ccccc1S2 | – | 8% | 1.0
32 | CONC(=O)c1ccc2c(c1)N=C(c1ccccc1Cl)c1ccccc1S2 | – | -15% | 1.0
33 | O=C(NOc1cccc(Cl)c1)c1ccc2c(c1)N=C(C1CCCCC1)c1cc(F)ccc1S2 | 39.8 nM | 100% | –
34 | CONC(=O)c1ccc2c(c1)N=C(c1ccc(Cl)cc1Cl)c1ccccc1S2 | – | -27% | 1.0
35 | COCCNC(=O)c1ccc2c(c1)N=C(c1ncccc1C)c1ccccc1S2 | – | -6% | 1.0
36 | CONC(=O)c1ccc2c(c1)N=C(c1ncccc1C)c1ccccc1S2 | – | 8% | 1.0
37 | CON(C)C(=O)c1ccc2c(c1)N=C(c1ncccc1C)c1ccccc1S2 | – | 0% | 1.0
38 | CCONC(=O)c1ccc2c(c1)N=C(c1ncccc1C)c1ccccc1S2 | – | 21% | 1.0
39 | CCCCN(C)C(=O)c1ccc2c(c1)N=C(c1ncccc1C)c1ccccc1S2 | – | 14% | 1.0
40 | CON(C)C(=O)c1ccc2c(c1)N=C(c1ccc(Cl)cc1Cl)c1ccccc1S2 | – | 18% | 1.0

Continued, values first:

Row | IC50 | Emax | pIC50 | Structure (SMILES)
41 | 631 nM | 118% | – | CCCC1=Nc2cc(C(=O)NCCCN3CCN(C4CCCCC4)CC3)ccc2Sc2ccccc21
42 | 631 nM | 95% | – | CCCC1=Nc2cc(C(=O)N3CCc4ccccc4C3)ccc2Sc2ccccc21
43 | 794 nM | 124% | – | CCCCN(C)CCCNC(=O)c1ccc2c(c1)N=C(CCC)c1ccccc1S2
44 | 31.6 nM | 105% | – | CCCC1=Nc2cc(C(=O)NCCc3ccc(OC)c(OC)c3)ccc2Sc2ccccc21
45 | 31.6 nM | 103% | – | CCCC1=Nc2cc(C(=O)NCc3ccco3)ccc2Sc2ccccc21
46 | 794 nM | 98% | – | CCCC1=Nc2cc(C(=O)NCCc3ccccc3)ccc2Sc2ccccc21
47 | 1000 nM | 77% | – | CCCC1=Nc2cc(C(=O)N3CCN(C(=O)OCC)CC3)ccc2Sc2ccccc21
48 | 31.6 nM | 95% | – | CCCNC(=O)c1ccc2c(c1)N=C(CCC)c1ccccc1S2
49 | 1000 nM | 79% | – | CCCC1=Nc2cc(C(=O)NC(C)CCN(C)C(=O)OCC)ccc2Sc2ccc(C)cc21 (stereo not drawn)
50 | 1580 nM | 87% | – | CCCSCCCNC(=O)c1ccc2c(c1)N=C(CCC)c1ccccc1S2
51 | 39.8 nM | 116% | – | CCCNC(=O)c1ccc2c(c1)N=C(c1ccccn1)c1ccccc1S2
52 | 1580 nM | 133% | – | CCCC1=Nc2cc(C(=O)NCC3CCCN3CC)ccc2Sc2ccccc21 (stereo not drawn)
53 | 1580 nM | 131% | – | CCCC1=Nc2cc(C(=O)NCCN(CC)CC)ccc2Sc2ccccc21
54 | 2000 nM | 123% | – | CCCC1=Nc2cc(C(=O)NCCN(C)C3CCCCC3)ccc2Sc2ccccc21
55 | 2510 nM | 120% | – | CCCC1=Nc2cc(C(=O)NCCCN3CCN(C)CC3)ccc2Sc2ccccc21
56 | 2510 nM | 79% | – | CCCC1=Nc2cc(C(=O)NCCCN3CCN(c4ccc(OC)cc4)CC3)ccc2Sc2ccccc21
57 | 39.8 nM | 95% | – | CCCC1=Nc2cc(C(=O)NC(C)CCc3ccccc3)ccc2Sc2ccccc21 (stereo not drawn)
58 | 3160 nM | 138% | – | CCCC1=Nc2cc(C(=O)NCCN3CCCC3)ccc2Sc2ccccc21
59 | 3160 nM | 84% | – | CCCC1=Nc2cc(C(=O)NCCN3CCN(c4cccc(C)c4C)CC3)ccc2Sc2ccccc21
60 | 39.8 nM | 97% | – | CCCNC(=O)c1ccc2c(c1)N=C(c1ccccc1F)c1ccccc1S2

— US20080090805A1, “CB-1 MODULATING COMPOUNDS AND THEIR USE” (ACADIA PHARMACEUTICALS INC., priority 2005, published 2008)
